Where a name gives a salt, the structure may show the parent alone. Blank lines part the entries; values can stand above or below the compound they belong to.
Target: T1, recombinant human Cathepsin K (Homo sapiens, UniProt P43235)
T1 sequence (P43235 115-329): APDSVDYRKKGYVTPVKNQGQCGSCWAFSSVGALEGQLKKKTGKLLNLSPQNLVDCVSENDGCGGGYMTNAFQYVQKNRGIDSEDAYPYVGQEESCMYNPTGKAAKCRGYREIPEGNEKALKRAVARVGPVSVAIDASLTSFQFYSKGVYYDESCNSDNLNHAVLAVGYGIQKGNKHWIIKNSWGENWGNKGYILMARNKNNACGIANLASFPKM
Assay: Cathepsin K activity: inhibition of recombinant human Cathepsin K (Z-Phe-Arg-AMC fluorescence)
Assay type: biochemical
Conditions: substrate Z-Phe-Arg-AMC, pH 5.5, fluorescence at 10 minutes, read-out: pIC50 (negative logarithm of the IC50 concentration) for inhibition of human cathepsin K (converted)
Method: To a 384 well microtitre plate is added 5 μl of a 100 μM solution of test compound in assay buffer (100 mM sodium acetate pH 5.5, 5 mM EDTA, 5 mM dithiothreitol) with 10% dimethylsulfoxide (DMSO), plus 10 μl of 100 μM solution of the substratre Z-Phe-Arg-AMC (Bachem; 7-amido-coumarine derivative of the dipeptide N-benzyloxycarbonyl-Phe-Arg-OH) in assay buffer and 25 μl of assay buffer. 10 μl of a 1 mg/l solution of activated recombinant human cathepsin K, in assay buffer, is then added to the well, yielding a final inhibitor concentration of 10 μM. Enzyme activity is determined by measuring the fluorescence of the liberated aminomethylcoumarin at […] using 390 nm excitation, at 10 minutes. Percentage enzyme activity is calculated by comparison of this activity to that of a solution containing no inhibitor. Compounds are subsequently subjected to a dose response curve analysis in order to determine IC50 values for active compounds (where IC50 is the concentration of test compound causing 50% inhibition of the enzymatic activity).
Compounds of the invention typically have a pIC50 (negative logarithm of the IC50 concentration) for inhibition of human cathepsin K of more than 6, preferably more than 7 and most preferably a pIC50 of more than 8, such as for the compounds of Examples 1, 2a, 2b, 3, 5, 6, 8, 12, 14, 13, 16k, 16n, 16o, 17, 22a, 22b, 22c

Structure (SMILES): N#Cc1nc(-c2cccc(C(F)(F)F)c2)cc(N2CCNCC2)n1 [Example 1, 4-(Piperazin-1-y)l-6-(3-trifluoromethylphenyl)-pyrimidine-2-carbonitrile]
IC50: < 10 nM

Structure (SMILES): N#Cc1nc(-c2cccc(C(F)(F)F)c2)cc(N2CCN(CCC(=O)O)CC2)n1 [Example 5, 4-[4-(2-carboxy-ethyl)-piperazin-1-yl]-6-(3-trifluoromethyl-phenyl)-pyrimidine-2-carbonitrile trifluoroacetic acid salt]
IC50: < 10 nM

Structure (SMILES): N#Cc1nc(-c2cccc(C(F)(F)F)c2)cc(N2CCN(CC3CC3)CC2)n1 [Example 6, 4-(4-Cyclopropylmethyl-piperazin-1-yl)-6-(trifluoromethyl-phenyl)-pyrimidine-2-carbonitrile trifluoroacetic acid salt]
IC50: < 10 nM

Structure (SMILES): N#Cc1nc(-c2cccc(C(F)(F)F)c2)cc(N2CCN(C3CC3)CC2)n1 [Example 8, 4-(4-Cyclopropyl-piperazin-1-yl)-6-(trifluoromethyl-phenyl)-pyrimidine-2-carbonitrile hydrochloric acid salt]
IC50: < 10 nM

Structure (SMILES): CN1CCN(c2cc(-c3cccc(C(F)(F)F)c3)nc(C#N)n2)CC1(C)C [Example 12, 4-(3,3,4-Trimethyl-piperazin-1-yl)-6-(3-trifluoromethyl-phenyl)-pyrimidine-2-carbonitrile]
IC50: < 10 nM

Structure (SMILES): N#Cc1nc(-c2cccc(C(F)(F)F)c2)cc(N2CCCNCC2)n1 [Example 13, 4-[1,4]Diazepan-1-yl-6-(3-trifluoromethylphenyl)-pyrimidine-2-carbonitrile]
IC50: < 10 nM

Structure (SMILES): CN1CCCN(c2cc(-c3cccc(C(F)(F)F)c3)nc(C#N)n2)CC1 [Example 14, 4-(4-Methyl-[1,4]diazepan-1-yl)-6-(3-trifluoromethyl-phenyl)-pyrimidine-2-carbonitrile]
IC50: < 10 nM

Structure (SMILES): CN1CCC(N(C)c2cc(-c3cccc(C(F)(F)F)c3)nc(C#N)n2)CC1 [Example 16k, 4-[Methyl-(1-methyl-piperidin-4-yl)-amino]-6-(3-trifluoromethyl-phenyl)-pyrimidine-2-carbonitrile trifluoroacetic acid salt]
IC50: < 10 nM

Structure (SMILES): COc1ccc(-c2cc(N3CCNCC3)nc(C#N)n2)cc1C(F)(F)F [Example 17, 4-(4-Methoxy-3-trifluoromethyl-phenyl)-6-piperazin-1-yl-pyrimidine-2-carbonitrile]
IC50: < 10 nM

Further lines, results first:

IC50: < 10 nM
Structure (SMILES): COCCN1CCN(c2cc(-c3cccc(C(F)(F)F)c3)nc(C#N)n2)CC1 [Example 2a, 4-[4-(2-Methoxy-ethyl)-piperazin-1-yl]-6-(3-trifluoromethy-phenyl)-pyrimidine-2-carbonitrile]

IC50: < 10 nM
Structure (SMILES): N#Cc1nc(-c2cccc(C(F)(F)F)c2)cc(N2CCN(CC(N)=O)CC2)n1 [Example 2b, 4-(4-carbamoylmethyl-piperazin-1-yl)-6-(3-trifluoromethyl-phenyl)-pyrimidine-2-carbonitrile]

IC50: < 10 nM
Structure (SMILES): N#Cc1nc(NCc2nnn[nH]2)cc(-c2cccc(C(F)(F)F)c2)n1 [Example 16n, 4-[(1H-Tetrazol-5-ylmethyl)-amino]-6-(3-trifluoromethyl-phenyl)-pyrimidine-2-carbonitrile]

IC50: < 10 nM
Structure (SMILES): N#Cc1nc(NCC(=O)O)cc(-c2cccc(C(F)(F)F)c2)n1 [Example 16o, 4-(Carboxymethyl-amino)-6-(3-trifluoromethyl-phenyl)-pyrimidine-2-carbonitrile]

IC50: < 10 nM
Structure (SMILES): N#Cc1nc(OCCN2CCCCC2)cc(-c2cccc(C(F)(F)F)c2)n1 [Example 22a, 4-(2-Piperidin-1-yl-ethoxy)-6-(3-trifluoromethyl-phenyl)-pyrimidine-2-carbonitrile]

IC50: < 10 nM
Structure (SMILES): N#Cc1nc(OCCN2CCOCC2)cc(-c2cccc(C(F)(F)F)c2)n1 [Example 22b, 4-(2-Morpholin-4-yl-ethoxy)-6-(3-trifluoromethyl-phenyl)-pyrimidine-2-carbonitrile]

IC50: < 10 nM
Structure (SMILES): CCN(CC)CCOc1cc(-c2cccc(C(F)(F)F)c2)nc(C#N)n1 [Example 22c, 4-(2-Diethylamino-ethoxy)-6-(3-trifluoromethyl-phenyl)-pyrimidine-2-carbonitrile]
